Values of other authors in US20030069213A1, “ORAL PREPARATION” (priority 1997, published 2003).
Converted amounts (≈) assume the structure as drawn. Where a name gives a salt, the structure may show the parent alone. Read-outs that look alike come from different tables or passages of the source.

Experiments:
[1] = dissolved in water
[2] = not given; remark: listed apart in the source

In the case of `OC[C@@H](O)[C@@H](O)[C@H](O)[C@H](O)CO` [mannitol], the heat of dissolution [1] is listed as -28.9 cal/g and the heat of dissolution ([1]; listed as D-Mannitol) is listed as “(−28.9) cal/g”.

For `OC[C@@H](O)[C@@H](O)[C@H](O)[C@@H](O)CO` [sorbitol], the heat of dissolution [1] is given as -24.1 cal/g and the heat of dissolution ([1]; listed as D-Sorbitol) is given as “(−24.1) cal/g”.

In the case of `OC[C@@H](O)[C@H](O)[C@@H](O)CO` [xylitol], the heat of dissolution [1] is given as -35 cal/g and the heat of dissolution ([1]; listed as Xylitol) is given as “Xylitol (−35) cal/g”.

In the case of `NC[C@H]1CC[C@H](C(=O)Oc2ccc(CCC(=O)O)cc2)CC1` [cetraxate hydrochloride], the solubility in water (pH 2.8, 22° C.) is listed as 27 mg/mL, the solubility in water (pH 5.9, 22° C.) is listed as 0.4 mg/mL and the “pKa (amino group)” value [2] is listed as 10.5. The “pKa (carboxyl group)” value [2] was 4.5.

In the case of `OC[C@H]1O[C@@](CO)(O[C@H]2O[C@H](CO)[C@@H](O)[C@H](O)[C@H]2O)[C@@H](O)[C@@H]1O` [sucrose], the heat of dissolution [1] is given as -4.5 cal/g and the heat of dissolution ([1]; listed as Sucrose) is given as “Sucrose (−4.5) cal/g”.

In the case of `OC[C@@H](O)[C@@H](O)CO` [erythritol], the heat of dissolution [1] is listed as -42.9 cal/g.

In the case of `OC[C@@H](O)[C@@H](O[C@H]1O[C@H](CO)[C@@H](O)[C@H](O)[C@H]1O)[C@H](O)[C@@H](O)CO` [maltitol], the heat of dissolution [1] is listed as -5.5 cal/g and the heat of dissolution ([1]; listed as Maltitol) is listed as “Maltitol (−5.5) cal/g”.

For `CN/C(=N/CCSCc1nc[nH]c1C)NC#N` [cimetidine], the solubility in water (pH 6.5, 25° C.) is listed as 30 mg/mL (≈ 119 mM), the solubility in water (pH 8.3, 25° C.) is listed as 5.3 mg/mL (≈ 21 mM) and the pKa [2] is listed as 7.1.

In the case of `Clc1ccccc1CN1CCc2sccc2C1` [ticlopidine hydrochloride], the pKa [2] is listed as 6.93.

In the case of `NC[C@H]1CC[C@H](C(=O)O)CC1` [tranexamic acid], the “pKa (amino group)” value [2] is given as 10.65 and the “pKa (carboxyl group)” value [2] is given as 4.33.
